According to patent US20020137929A1, “1 - (3-heterocyclylphenyl) isothiourea, -isourea, -guanidine and -amidine herbicidal agents” (Intellectual Property Department, BASF Aktiengesellschaft, priority 1998, published 2002):

Tests used:
CASOB (Sicklepod) = experiment: Postemergence herbicidal evaluation; format: in vivo, Cassia obtusifolia; conditions: postemergence
Outline: (§1)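 Each compound, dispersed in an acetone/water mix (50/50) carrying 0.5% TWEEN 20, is nozzle-sprayed at 40 psi on approximately two-week-old seedlings at about 0.0156–0.500 kg/ha. Plants are assessed 4–5 weeks afterward on a 0–9 scale relative to control; duplicate tests are averaged.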

[1] = test system: CHEAL (Lambsquarters, Common); experiment: Postemergence herbicidal evaluation; format: in vivo, Chenopodium album; conditions: postemergence
Outline: as §1

ECHCG (Barnyardgrass) = experiment: Postemergence herbicidal evaluation; format: in vivo, Echinochloa crus-galli; conditions: postemergence
Outline: as §1

ORYSAT (Rice, Tebonnet) [2] = experiment: Postemergence herbicidal evaluation; format: in vivo, Oryza sativa, (L.) Tebonnet; conditions: postemergence
Outline: as §1

GALAP (Galium) = experiment: Preemergence herbicidal evaluation; format: in vivo, Galium aparine; conditions: rated 4-5 weeks after treatment
Outline: (§2)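 Test compound, dissolved in aqueous acetone, was sprayed over planted soil cups at an equivalent of about 0.0156 to 0.500 kg/ha; seeds had been mixed with potting soil. Greenhouse growth followed, with visual 0-9 scoring of injury at four to five weeks.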

SETVI (Foxtail, Green) = experiment: Preemergence herbicidal evaluation; format: in vivo, Setaria viridis; conditions: rated 4-5 weeks after treatment
Outline: as §2

[3] = test system: GLXMAW (Soybean, Williams); experiment: Preemergence herbicidal evaluation; format: in vivo, Glycine max, (L.) Merr. cv Williams; conditions: rated 4-5 weeks after treatment
Outline: as §2

ORYSAT (Rice, Tebonnet) [4] = experiment: Preemergence herbicidal evaluation; format: in vivo, Oryza sativa, (L.) Tebonnet; conditions: rated 4-5 weeks after treatment
Outline: as §2

[5] = test system: TRZAWR (Wheat, Winter, cv Riband); experiment: Preemergence herbicidal evaluation; format: in vivo, Triticum aestivum; conditions: rated 4-5 weeks after treatment
Outline: as §2

ZEAMX (Corn, Field) = experiment: Preemergence herbicidal evaluation; format: in vivo, Zea mays; conditions: rated 4-5 weeks after treatment
Outline: as §2

CYPIR (Rice Flatsedge) = experiment: Preemergence weed control under flooded paddy conditions; format: in vivo, Cyperus iria; conditions: rated 3-4 weeks after treatment
Outline: (§3)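 Ratings on a 0-9 visual scale cover stand, vigor, malformation, size, chlorosis and overall appearance relative to a control, taken three to four weeks post-treatment. Application was into flood water over freshly sown silt loam at roughly 0.0313 to 0.500 kg/ha.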

MOOVA (Monochoria) = experiment: as above; format: in vivo, Monochoria vaginalis; conditions: rated 3-4 weeks after treatment
Outline: as §3

[6] = test system: SAGPY (Arrowhead (Pygmaea)); experiment: as above; format: in vivo, Sagittaria pygmaea; conditions: rated 3-4 weeks after treatment
Outline: as §3

[7] = rate 0.0313 kg/ha, rating scale 0-9
[8] = rate 0.0625 kg/ha, rating scale 0-9
[9] = rate 0.1250 kg/ha, rating scale 0-9
[10] = rate 0.2500 kg/ha, rating scale 0-9

## Cn1c(C(F)(F)F)cc(=O)n(-c2cc(N=C3SCC(=O)N3CC(F)(F)F)c(Cl)cc2F)c1=O [Compound 163, 3-{4-Chloro-2-fluoro-5-{[4-oxo-3-(2,2,2-trifluoroethyl)-2-thiazolidinylidene]amino}phenyl}-1-methyl-6-(trifluoromethyl)-2,4(1H,3H)-pyrimidinedione]
CASOB (Sicklepod); rate 0.0156 kg/ha
  herbicidal rating CASOB: 0.0
CASOB (Sicklepod); rate 0.0313 kg/ha
  herbicidal rating CASOB: 0.0
CASOB (Sicklepod); rate 0.0625 kg/ha
  herbicidal rating CASOB: 3.0
[1]; rate 0.0156 kg/ha
  herbicidal rating CHEAL: 9.0
[1]; rate 0.0313 kg/ha
  herbicidal rating CHEAL: 9.0
[1]; rate 0.0625 kg/ha
  herbicidal rating CHEAL: 9.0
ECHCG (Barnyardgrass); rate 0.0156 kg/ha
  herbicidal rating ECHCG: 0.0
ECHCG (Barnyardgrass); rate 0.0313 kg/ha
  herbicidal rating ECHCG: 0.0
ECHCG (Barnyardgrass); rate 0.0625 kg/ha
  herbicidal rating ECHCG: 1.0
ORYSAT (Rice, Tebonnet) [2]; rate 0.0156 kg/ha
  herbicidal rating ORYSAT: 1.0
ORYSAT (Rice, Tebonnet) [2]; rate 0.0313 kg/ha
  herbicidal rating ORYSAT: 1.5
ORYSAT (Rice, Tebonnet) [2]; rate 0.0625 kg/ha
  herbicidal rating ORYSAT: 2.0
GALAP (Galium); 0.0156 kg/ha
  Preemergence herbicidal rating GALAP: 0.0
GALAP (Galium); 0.0313 kg/ha
  Preemergence herbicidal rating GALAP: 0.0
GALAP (Galium); 0.0625 kg/ha
  Preemergence herbicidal rating GALAP: 0.0
GALAP (Galium); 0.1250 kg/ha
  Preemergence herbicidal rating GALAP: 0.0
GALAP (Galium); 0.2500 kg/ha
  Preemergence herbicidal rating GALAP: 3.0
SETVI (Foxtail, Green); 0.0156 kg/ha
  Preemergence herbicidal rating SETVI: 9.0
SETVI (Foxtail, Green); 0.0313 kg/ha
  Preemergence herbicidal rating SETVI: 9.0
SETVI (Foxtail, Green); 0.0625 kg/ha
  Preemergence herbicidal rating SETVI: 9.0
SETVI (Foxtail, Green); 0.1250 kg/ha
  Preemergence herbicidal rating SETVI: 9.0
SETVI (Foxtail, Green); 0.2500 kg/ha
  Preemergence herbicidal rating SETVI: 9.0
[3]; 0.0156 kg/ha
  Preemergence herbicidal rating GLXMAW: 0.0
[3]; 0.0313 kg/ha
  Preemergence herbicidal rating GLXMAW: 2.0
[3]; 0.0625 kg/ha
  Preemergence herbicidal rating GLXMAW: 3.0
[3]; 0.1250 kg/ha
  Preemergence herbicidal rating GLXMAW: 3.0
[3]; 0.2500 kg/ha
  Preemergence herbicidal rating GLXMAW: 5.0
ORYSAT (Rice, Tebonnet) [4]; 0.0156 kg/ha
  Preemergence herbicidal rating ORYSAT: 1.0
ORYSAT (Rice, Tebonnet) [4]; 0.0313 kg/ha
  Preemergence herbicidal rating ORYSAT: 3.0
ORYSAT (Rice, Tebonnet) [4]; 0.0625 kg/ha
  Preemergence herbicidal rating ORYSAT: 5.0
ORYSAT (Rice, Tebonnet) [4]; 0.1250 kg/ha
  Preemergence herbicidal rating ORYSAT: 7.0
ORYSAT (Rice, Tebonnet) [4]; 0.2500 kg/ha
  Preemergence herbicidal rating ORYSAT: 8.0
[5]; 0.0156 kg/ha
  Preemergence herbicidal rating TRZAWR: 0.0
[5]; 0.0313 kg/ha
  Preemergence herbicidal rating TRZAWR: 0.0
[5]; 0.0625 kg/ha
  Preemergence herbicidal rating TRZAWR: 3.0
[5]; 0.1250 kg/ha
  Preemergence herbicidal rating TRZAWR: 7.0
[5]; 0.2500 kg/ha
  Preemergence herbicidal rating TRZAWR: 7.0
ZEAMX (Corn, Field); 0.0156 kg/ha
  Preemergence herbicidal rating ZEAMX: 5.0
ZEAMX (Corn, Field); 0.0313 kg/ha
  Preemergence herbicidal rating ZEAMX: 5.0
ZEAMX (Corn, Field); 0.0625 kg/ha
  Preemergence herbicidal rating ZEAMX: 7.0
ZEAMX (Corn, Field); 0.1250 kg/ha
  Preemergence herbicidal rating ZEAMX: 7.0
ZEAMX (Corn, Field); 0.2500 kg/ha
  Preemergence herbicidal rating ZEAMX: 8.0
CYPIR (Rice Flatsedge); 0.0313 kg/ha
  herbicidal effect rating, CYPIR: 6.0
CYPIR (Rice Flatsedge); 0.0625 kg/ha
  herbicidal effect rating, CYPIR: 7.0
CYPIR (Rice Flatsedge); 0.1250 kg/ha
  herbicidal effect rating, CYPIR: 9.0
CYPIR (Rice Flatsedge); 0.2500 kg/ha
  herbicidal effect rating, CYPIR: 9.0
MOOVA (Monochoria); 0.0313 kg/ha
  herbicidal effect rating, MOOVA: 9.0
MOOVA (Monochoria); 0.0625 kg/ha
  herbicidal effect rating, MOOVA: 9.0
MOOVA (Monochoria); 0.1250 kg/ha
  herbicidal effect rating, MOOVA: 9.0
MOOVA (Monochoria); 0.2500 kg/ha
  herbicidal effect rating, MOOVA: 9.0
[6]; 0.0313 kg/ha
  herbicidal effect rating, SAGPY: 2.0
[6]; 0.0625 kg/ha
  herbicidal effect rating, SAGPY: 3.0
[6]; 0.1250 kg/ha
  herbicidal effect rating, SAGPY: 6.0
[6]; 0.2500 kg/ha
  herbicidal effect rating, SAGPY: 7.0

## Cn1c(C(F)(F)F)cc(=O)n(-c2cc(N=C3SCC(=O)N3Cc3ccccc3Cl)c(Cl)cc2F)c1=O [Compound 143]
CASOB (Sicklepod); rate 0.0156 kg/ha
  herbicidal rating CASOB: 0.0
CASOB (Sicklepod); rate 0.0313 kg/ha
  herbicidal rating CASOB: 1.0
CASOB (Sicklepod); rate 0.0625 kg/ha
  herbicidal rating CASOB: 3.0
[1]; rate 0.0156 kg/ha
  herbicidal rating CHEAL: 2.0
[1]; rate 0.0313 kg/ha
  herbicidal rating CHEAL: 6.0
[1]; rate 0.0625 kg/ha
  herbicidal rating CHEAL: 6.0
ECHCG (Barnyardgrass); rate 0.0156 kg/ha
  herbicidal rating ECHCG: 1.0
ECHCG (Barnyardgrass); rate 0.0313 kg/ha
  herbicidal rating ECHCG: 2.0
ECHCG (Barnyardgrass); rate 0.0625 kg/ha
  herbicidal rating ECHCG: 1.0
ORYSAT (Rice, Tebonnet) [2]; rate 0.0156 kg/ha
  herbicidal rating ORYSAT: 1.5
ORYSAT (Rice, Tebonnet) [2]; rate 0.0313 kg/ha
  herbicidal rating ORYSAT: 1.5
ORYSAT (Rice, Tebonnet) [2]; rate 0.0625 kg/ha
  herbicidal rating ORYSAT: 2.0
GALAP (Galium); [7]
  Preemergence herbicidal rating GALAP: 0.0
GALAP (Galium); [8]
  Preemergence herbicidal rating GALAP: 0.0
GALAP (Galium); [9]
  Preemergence herbicidal rating GALAP: 1.0
GALAP (Galium); [10]
  Preemergence herbicidal rating GALAP: 0.0
SETVI (Foxtail, Green); [7]
  Preemergence herbicidal rating SETVI: 0.0
SETVI (Foxtail, Green); [8]
  Preemergence herbicidal rating SETVI: 0.0
SETVI (Foxtail, Green); [9]
  Preemergence herbicidal rating SETVI: 3.0
SETVI (Foxtail, Green); [10]
  Preemergence herbicidal rating SETVI: 3.0
[3]; [7]
  Preemergence herbicidal rating GLXMAW: 0.0
[3]; [8]
  Preemergence herbicidal rating GLXMAW: 0.0
[3]; [9]
  Preemergence herbicidal rating GLXMAW: 0.0
[3]; [10]
  Preemergence herbicidal rating GLXMAW: 1.0
ORYSAT (Rice, Tebonnet) [4]; [7]
  Preemergence herbicidal rating ORYSAT: 0.0
ORYSAT (Rice, Tebonnet) [4]; [8]
  Preemergence herbicidal rating ORYSAT: 0.0
ORYSAT (Rice, Tebonnet) [4]; [9]
  Preemergence herbicidal rating ORYSAT: 0.0
ORYSAT (Rice, Tebonnet) [4]; [10]
  Preemergence herbicidal rating ORYSAT: 1.0
[5]; [7]
  Preemergence herbicidal rating TRZAWR: 0.0
[5]; [8]
  Preemergence herbicidal rating TRZAWR: 0.0
[5]; [9]
  Preemergence herbicidal rating TRZAWR: 0.0
[5]; [10]
  Preemergence herbicidal rating TRZAWR: 1.0
ZEAMX (Corn, Field); [7]
  Preemergence herbicidal rating ZEAMX: 0.0
ZEAMX (Corn, Field); [8]
  Preemergence herbicidal rating ZEAMX: 0.0
ZEAMX (Corn, Field); [9]
  Preemergence herbicidal rating ZEAMX: 0.0
ZEAMX (Corn, Field); [10]
  Preemergence herbicidal rating ZEAMX: 0.0
CYPIR (Rice Flatsedge); 0.0313 kg/ha
  herbicidal effect rating, CYPIR: 0.0
CYPIR (Rice Flatsedge); 0.0625 kg/ha
  herbicidal effect rating, CYPIR: 3.0
CYPIR (Rice Flatsedge); 0.1250 kg/ha
  herbicidal effect rating, CYPIR: 4.0
CYPIR (Rice Flatsedge); 0.2500 kg/ha
  herbicidal effect rating, CYPIR: 4.0
MOOVA (Monochoria); 0.0313 kg/ha
  herbicidal effect rating, MOOVA: 5.0
MOOVA (Monochoria); 0.0625 kg/ha
  herbicidal effect rating, MOOVA: 6.0
MOOVA (Monochoria); 0.1250 kg/ha
  herbicidal effect rating, MOOVA: 6.0
MOOVA (Monochoria); 0.2500 kg/ha
  herbicidal effect rating, MOOVA: 6.0
[6]; 0.0313 kg/ha
  herbicidal effect rating, SAGPY: 0.0
[6]; 0.0625 kg/ha
  herbicidal effect rating, SAGPY: 0.0
[6]; 0.1250 kg/ha
  herbicidal effect rating, SAGPY: 0.0
[6]; 0.2500 kg/ha
  herbicidal effect rating, SAGPY: 5.0
